Laboratory results taken from US20250160324A1, “ACIDIFIED OLEOGEL AND METHODS OF USE” (University of Massachusetts, priority 2023, published 2025).

Tests used:
[1] = system: desiccated Salmonella enterica subsp. enterica serovar Enteritidis phage type 30 (ATCC BAA-1045); experiment: Antimicrobial assay against cells desiccated on stainless-steel coupons; format: cell-based; conditions: 200 mM organic acid, 30-min contact; for MLR ± SD, W/O emulsion, 22° C. / MLR ± SD, W/O emulsion, 45° C.: 1% v/v water; for MLR ± SD, W/O emulsion, 22° C. / MLR ± SD, W/O emulsion, 45° C. / MLR ± SD, W/O emulsion with glycerol, 22° C. / MLR ± SD, W/O emulsion with glycerol, 45° C.: 75% ERH; for MLR ± SD, Oil with PGPR, 22° C. / MLR ± SD, Oil with PGPR, 45° C.: cells desiccated to 75% ERH
[2] = Water activity (aw) by Dewpoint aw meter; format: physicochemical; conditions: 200 mM organic acid

SMILES	MLR ± SD, W/O emulsion, 22° C. [1]	MLR ± SD, W/O emulsion, 45° C. [1]	MLR ± SD, W/O emulsion with glycerol, 22° C. [1]	MLR ± SD, W/O emulsion with glycerol, 45° C. [1]	MLR ± SD, Oil with PGPR, 22° C. [1]	MLR ± SD, Oil with PGPR, 45° C. [1]	MLR ± SD, Oil with PGPR, 22° C. ([1]; listed as C2)	MLR ± SD, Oil with PGPR, 45° C. ([1]; listed as C2)	measured solution aw of acidified oil [2]	MLR ± SD, Oil with PGPR, 22° C. ([1]; listed as C3)	MLR ± SD, Oil with PGPR, 45° C. ([1]; listed as C3)
CC(=O)O [Acetic, acetic/ethanoic acid]	>6.52	>6.52	0.81 ± 0.24	2.53 ± 0.75	0.69 ± 0.19	1.42 ± 0.14	0.69	1.42	–	–	–
CCCC(=O)O [Butyric, butyric/butanoic acid]	0.55 ± 0.06	>6.52	0.31 ± 0.16	1.40 ± 0.31	–	0.52 ± 0.13	–	–	–	–	–
CCCCCCCCCC(=O)O [Capric, capric/decanoic acid]	0.67 ± 0.17	>6.52	0.37 ± 0.06	0.57 ± 0.09	0.23 ± 0.04	0.28 ± 0.09	–	–	–	–	–
CCCCCC(=O)O [Caproic, caproic/hexanoic acid]	0.72 ± 0.18	>6.52	0.10 ± 0.03	0.74 ± 0.48	0.21 ± 0.09	0.68 ± 0.08	–	–	–	–	–
CCCCCCCC(=O)O [Caprylic, caprylic/octanoic acid]	0.94 ± 0.26	>6.52	0.56 ± 0.18	0.74 ± 0.11	–	0.49 ± 0.26	–	–	–	–	–
CCCCCCC(=O)O [Enanthic, enanthic/heptanoic acid]	0.34 ± 0.26	>6.52	–	0.79 ± 0.22	–	0.34 ± 0.03	–	–	–	–	–
O=CO [Formic, formic/methanoic acid]	–	–	–	–	–	–	–	–	0.51	–	–
CCCCCCCCCCCC(=O)O [Lauric, lauric/dodecanoic acid]	1.05 ± 0.28	>6.52	0.49 ± 0.12	1.02 ± 0.04	0.16 ± 0.06	0.40 ± 0.17	–	–	–	–	–
CCCCCCCCC(=O)O [Pelargonic, pelargonic/nonanoic acid]	0.31 ± 0.10	>6.52	–	0.30 ± 0.09	–	0.39 ± 0.11	–	–	–	–	–
CCC(=O)O [Propionic, propionic/propanoic acid]	>6.52	>6.52	0.73 ± 0.22	1.41 ± 0.66	0.89 ± 0.24	1.11 ± 0.27	–	–	–	0.89	1.11
CCCCCCCCCCC(=O)O [Undecylic, undecylic/undecanoic acid]	0.38 ± 0.09	>6.52	–	0.22 ± 0.18	–	0.31 ± 0.03	–	–	–	–	–
CCCCC(=O)O [Valeric, valeric/pentanoic acid]	0.11 ± 0.05	>6.52	–	1.12 ± 0.16	–	0.31 ± 0.02	–	–	–	–	–
